Data: patent publication US20120058948A1, “Collagen peptides as immune modulators” (priority 2006, published 2012)
“Also recorded” adds a separate entry of the source. Square brackets hold non-standard residues; d marks the D form. Ends that are not written are not given here. Hyp = O=C(O)[C@@H]1C[C@@H](O)CN1

Tested on: human peripheral blood monocytes (HPBMs) activated with LPS
Experiment: LPS-induced IL-1β production (ELISA) from activated HPBMs incubated with LPS and peptide
Type: cell-based
Conditions: for effect on LPS-induced IL-1β production from HPBMs: LPS 3.3×10^−7 M plus peptide 10^−7, 10^−8 or 10^−9 M, compared with LPS alone, FIG. 3; for effect on LPS-induced IL-1β production at all concentrations studied: all peptide concentrations studied (10^−7 to 10^−9 M), FIGS. 3B-D
Procedure: Samples (10 mg each) of peptide p1 (Lot #10055791, Genemed Synthesis Inc., San Francisco, Calif.), p2 (Lot #10059702, Genemed Synthesis Inc.) and p3 (Lot #10059701, Genemed Synthesis Inc.) were obtained with >98% purity. Each peptide was diluted with phosphate buffered saline (PBS, […], pH 7.2, 20012-043, Invitrogen Corp., Carlsbad, Calif.) yielding solutions of 10 mg/mL. The peptide solutions were incubated at 4° C. for 24 hours, then stored at −80° C. until required. Glucagon (G2044, Sigma-Aldrich, St. Louis, Mo.) was stored, defrosted and treated in an identical manner to p1, p2 and p3.
Human peripheral blood monocytes were isolated from whole blood supplied by a healthy […] as follows. A 45 mL sample was drawn using 3.2% sodium citrate vacuum tubes. Whole blood was then diluted with a 2.5 mM PBS solution (0.1M, […], Sterile, S02131, Teknova Inc., Hollister, Calif.) to form a solution having a 1:2 ratio of blood:PBS solution. Red blood cells were subsequently removed by density gradient separation using a 1:1 ratio of Histopaque-1077 (Sigma-Aldrich) and centrifuged for 30 minutes at 400×g at 25° C. The plasma layer was removed by aspiration, and the buffy layer, comprising lymphocytes, monocytes and platelets, was collected into two 50 mL conical tubes. To remove the excess histopaque, platelets and plasma, the cells were centrifuged at 250×g for an additional 10 minutes at 4° C. The supernatant was removed and the cells resuspended in 2.5 mM PBS sodium citrate and centrifuged again. The platelet-enriched supernatant was removed after the second wash, leaving a cell pellet in each of the two tubes.
The remainder of the monocyte isolation was carried out using a MS 130-041-201 column (MACS, Miltenyi Biotec, Bergisch Gladbach, Germany) and Human Monocyte Isolation Kit II (MACS, Miltenyi Biotec) as outlined by the manufacturer. The column was washed with 1 mL of 1% heat inactivated fetal bovine serum (1% HI-FBS, USA origin, sterile-filtered, cell culture tested, hybridoma tested, F2442 Sigma-Aldrich) in a PBS sodium citrate solution. The cell pellets were combined into one tube. The cell solution was centrifuged at 300×g at 4° C. and the supematant removed before adding 30 microliters of 1% HI-FBS, 20 microliters FCR blocking agent and 20 microliters monocyte biotin-antibody cocktail per 10^7 cells to the pellet. The tube was lightly agitated then chilled for 10 minutes at 4° C. Anti-biotin microbeads (40 microliters) and 30 microliters of additional 1% HI-FBS per 10^7 cells were added to each tube. The tube was vortexed for three to five seconds to mix, then set to chill at 4° C. for another 15 minutes.
After the incubation at 4° C., 2 mL of 1% HI-FBS were added, and the sample was centrifuged for 10 minutes at 300×g at 25° C. to remove excess antibodies and beads. The supernatant was removed and the pellet carefully re-suspended in 500 microliters of 1% HI-FBS. This cell solution was added to the column, and no further fluid was added until the flow of solution through the column had stopped. The tube and column were washed three times with 500 microliters of 1% HI-FBS, and the fluid was collected for cell culture. Subsequent fluorescence activated cell sorter (FACS) analysis of tissue culture samples confirmed a monocyte purity of >82%. Monocytes were seeded at 5×10^5 per well and cultured in 10% FBS RPMI 1640 and allowed to incubate at 37° C. in 5% CO2.
Because the peptides under investigation can spontaneously form triple-helical structures in solution, the peptides were heated to 90° C. for two minutes prior to introducing them to HPBM cultures to ensure that unfolded peptides, corresponding to the collagen-degradation products, were used for the experiments. The peptide solutions were then diluted with RPMI 1640 10% FBS at 37° C., yielding a final concentration of 1 microgram/mL. Serial dilutions of the peptide samples were performed to obtain the solutions at the desired concentration. […]

Sequence	effect on LPS-induced IL-1β production from HPBMs	effect on LPS-induced IL-1β production at a relatively high concentration of peptide (LPS 3.3×10^−7 M, relatively high peptide concentration (close to that in synovial fluid of RA patients), FIG. 3A/3D)	effect on LPS-induced IL-1β production at all concentrations studied (LPS 3.3×10^−7 M)	time at which elevated IL-1β levels began, peptide p1 relative to peptide p3 (LPS 3.3×10^−7 M plus peptide, sampling every four hours for 28 hours)
HSQGTIFTSDYSKYLDSRRAQDFVQWLMNT [peptide p0, reference compound]	no significant effect	not statistically significant	–	–
POGPOGPOGAOGLRGGAGPAGPOGPOGPOG (P[Hyp]GP[Hyp]GP[Hyp]GA[Hyp]GLRGGAGPAGP[Hyp]GP[Hyp]GP[Hyp]G; ends and bridges not checked) [peptide p3, models a relatively imino-poor but relatively rigid collagen segment near a gelatinase scissile bond, flanked by POG triplets]	additive effect; also recorded: greatest effect; also recorded: augmented	–	augment	–
POGPOGPOGPOGPOGPOGPOGPOGPOGPOG [peptide p1]	additive effect; also recorded: augmented	–	augment	later time
